{
  "source": "paper PMC2939770",
  "about": "(Bioorganic & Medicinal Chemistry, 2010)",
  "key": {"[1]": {"tested_on": "6PGDH", "parameters": "method as in PMID 9307279", "settings": "might bind to the cofactor binding site; cited from earlier work"}, "[2]": {"molecular_target": "T1, T. brucei 6PGDH (Trypanosoma brucei brucei, UniProt P31072)", "T1 sequence (P31072 1-479)": "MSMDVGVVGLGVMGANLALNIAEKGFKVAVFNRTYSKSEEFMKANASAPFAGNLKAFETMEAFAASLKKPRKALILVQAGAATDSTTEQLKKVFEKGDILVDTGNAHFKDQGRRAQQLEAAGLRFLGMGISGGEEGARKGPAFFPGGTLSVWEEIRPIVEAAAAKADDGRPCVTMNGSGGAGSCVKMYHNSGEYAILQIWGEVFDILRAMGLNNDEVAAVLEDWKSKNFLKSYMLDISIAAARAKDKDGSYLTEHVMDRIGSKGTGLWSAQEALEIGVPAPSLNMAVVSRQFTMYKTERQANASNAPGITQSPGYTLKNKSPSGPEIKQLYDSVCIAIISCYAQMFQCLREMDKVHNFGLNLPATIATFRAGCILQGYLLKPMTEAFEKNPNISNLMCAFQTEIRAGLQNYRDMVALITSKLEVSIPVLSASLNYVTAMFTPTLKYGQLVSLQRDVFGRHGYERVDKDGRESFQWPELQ", "settings": "for Hill slope: slope of the IC50 curve, recombinant Tb6PGDH; for Ligand efficiency: −RTLn(IC50)/HAC, HAC: heavy atom count; for confirmation of enzyme inhibition on re-test: second round, repurchased hits of the first screening", "method": "(§1) Inhibition studies involved a reaction in 50 mM triethanolamine pH 7.0, 2 mM MgCl2. NADPH and 6PG were each at 20 μM. Total reaction volume was 1 ml. The reaction was followed in a Perkin Elmer UV–vis spectrophotometer. Compounds were dissolved in DMSO and initially added at 200 μM, then 50 μM."}, "[3]": {"molecular_target": "T1, T. brucei 6PGDH", "assay": "biochemical", "method": "as §1"}},
  "data": [
    {"smiles": "NC(=O)c1ccc(N)nc1", "note": "[6-aminonicotinamide]", "values": [
      {"measurement": "inhibition of 6PGDH", "setting": "[1]", "result": "potential inhibitor of 6PGDH"}
    ]},
    {"smiles": "CCOC(=O)c1[nH]c(C(=O)O)c(C)c1C", "note": "[Compound 1]", "values": [
      {"measurement": "Hill slope", "setting": "[2]", "result": 1.6},
      {"measurement": "Ligand efficiency", "setting": "[2]", "result": "0.40 (kcal/mol)/HAC"},
      {"measurement": "IC50", "setting": "[3]", "result": "45 ± 11", "unit": "µM"}
    ]},
    {"smiles": "O=C(O)c1cc(Cl)c[nH]1", "note": "[Compound 2]", "values": [
      {"measurement": "Hill slope", "setting": "[2]", "result": 1.8},
      {"measurement": "Ligand efficiency", "setting": "[2]", "result": "0.66 (kcal/mol)/HAC"},
      {"measurement": "IC50", "setting": "[3]", "result": "43 ± 9", "unit": "µM"}
    ]},
    {"smiles": "Cc1oc([N+](=O)[O-])cc1C(=O)O", "note": "[Compound 3]", "values": [
      {"measurement": "Hill slope", "setting": "[2]", "result": 1.5},
      {"measurement": "Ligand efficiency", "setting": "[2]", "result": "0.52 (kcal/mol)/HAC"},
      {"measurement": "IC50", "setting": "[3]", "result": "28 ± 6", "unit": "µM"}
    ]},
    {"smiles": "NC(=O)N1CCCC1C(=O)O", "note": "(centres unmarked) [Compound 4]", "values": [
      {"measurement": "confirmation of enzyme inhibition on re-test", "setting": "[2]", "result": "did not confirm the previous reported activity"}
    ]},
    {"smiles": "NC(C(=O)O)c1ccsc1", "note": "(centres unmarked) [Compound 5]", "values": [
      {"measurement": "confirmation of enzyme inhibition on re-test", "setting": "[2]", "result": "did not confirm the previous reported activity"}
    ]},
    {"smiles": "NC(CS(=O)(=O)O)C(=O)O", "note": "(centres unmarked) [Compound 10]", "values": [
      {"measurement": "confirmation of enzyme inhibition on re-test", "setting": "[2]", "result": "did not confirm the previous reported activity"}
    ]},
    {"smiles": "O=C1CC(S(=O)(=O)[O-])c2ccccc2/C1=N/O.[Na+]", "note": "(centres unmarked) [Compound 11]", "values": [
      {"measurement": "Hill slope", "setting": "[2]", "result": 1.4},
      {"measurement": "Ligand efficiency", "setting": "[2]", "result": "0.33 (kcal/mol)/HAC"},
      {"measurement": "IC50", "setting": "[3]", "result": "73 ± 9", "unit": "µM"}
    ]},
    {"smiles": "Cc1c(C(=O)O)oc2c1C(=O)CSC2", "note": "[Compound 12]", "values": [
      {"measurement": "Hill slope", "setting": "[2]", "result": 1.7},
      {"measurement": "Ligand efficiency", "setting": "[2]", "result": "0.42 (kcal/mol)/HAC"},
      {"measurement": "IC50", "setting": "[3]", "result": "51 ± 3", "unit": "µM"}
    ]},
    {"smiles": "O=C(O)c1cc2sccc2[nH]1", "note": "[Compound 13]", "values": [
      {"measurement": "Hill slope", "setting": "[2]", "result": 1.1},
      {"measurement": "Ligand efficiency", "setting": "[2]", "result": "0.54 (kcal/mol)/HAC"},
      {"measurement": "IC50", "setting": "[3]", "result": "42 ± 7", "unit": "µM"}
    ]},
    {"smiles": "Cc1c(C(=O)O)[nH]c(-c2[nH]c(C(=O)O)c(C)c2C)c1C", "note": "[Compound 14]", "values": [
      {"measurement": "Hill slope", "setting": "[2]", "result": 1.4},
      {"measurement": "Ligand efficiency", "setting": "[2]", "result": "0.27 (kcal/mol)/HAC"},
      {"measurement": "IC50", "setting": "[3]", "result": "114 ± 27", "unit": "µM"}
    ]},
    {"smiles": "O=C(O)C(=Cc1ccc([N+](=O)[O-])o1)C(=O)O", "note": "[Compound 15]", "values": [
      {"measurement": "Hill slope", "setting": "[2]", "result": 5.2},
      {"measurement": "Ligand efficiency", "setting": "[2]", "result": "0.36 (kcal/mol)/HAC"},
      {"measurement": "IC50", "setting": "[3]", "result": "56 ± 6", "unit": "µM"}
    ]},
    {"smiles": "O=C1C=C(S(=O)(=O)[O-])c2ccccc2C1=O.[K+]", "note": "[Compound 16]", "values": [
      {"measurement": "Hill slope", "setting": "[2]", "result": 4.8}
    ]},
    {"smiles": "N#C/C(=C\\c1ccc([N+](=O)[O-])o1)C(=O)O", "note": "[Compound 17]", "values": [
      {"measurement": "Hill slope", "setting": "[2]", "result": 2.0},
      {"measurement": "Ligand efficiency", "setting": "[2]", "result": "0.48 (kcal/mol)/HAC"},
      {"measurement": "IC50", "setting": "[3]", "result": "5.8 ± 0.6", "unit": "µM"}
    ]},
    {"smiles": "O=C(O)c1cc(Cl)c(Cl)[nH]1", "note": "[Compound 18]", "values": [
      {"measurement": "Hill slope", "setting": "[2]", "result": 2.1},
      {"measurement": "Ligand efficiency", "setting": "[2]", "result": "0.60 (kcal/mol)/HAC"},
      {"measurement": "IC50", "setting": "[3]", "result": "42 ± 3.7", "unit": "µM"}
    ]}
  ]
}
